These results are taken from BindingDB's records for doi:10.7270/Q2KH0KWR (Burnham Center For Chemical Genomics, 2012).

By IC50 is commonly meant the point on the concentration scale where inhibition reaches its midpoint.

SMILES strings stand for the structures. Bounds are passed on as bounds.

The assay addresses T1, Tyrosine-protein phosphatase non-receptor type 5 (Homo sapiens, UniProt P54829).
T1 sequence (P54829 whole entry): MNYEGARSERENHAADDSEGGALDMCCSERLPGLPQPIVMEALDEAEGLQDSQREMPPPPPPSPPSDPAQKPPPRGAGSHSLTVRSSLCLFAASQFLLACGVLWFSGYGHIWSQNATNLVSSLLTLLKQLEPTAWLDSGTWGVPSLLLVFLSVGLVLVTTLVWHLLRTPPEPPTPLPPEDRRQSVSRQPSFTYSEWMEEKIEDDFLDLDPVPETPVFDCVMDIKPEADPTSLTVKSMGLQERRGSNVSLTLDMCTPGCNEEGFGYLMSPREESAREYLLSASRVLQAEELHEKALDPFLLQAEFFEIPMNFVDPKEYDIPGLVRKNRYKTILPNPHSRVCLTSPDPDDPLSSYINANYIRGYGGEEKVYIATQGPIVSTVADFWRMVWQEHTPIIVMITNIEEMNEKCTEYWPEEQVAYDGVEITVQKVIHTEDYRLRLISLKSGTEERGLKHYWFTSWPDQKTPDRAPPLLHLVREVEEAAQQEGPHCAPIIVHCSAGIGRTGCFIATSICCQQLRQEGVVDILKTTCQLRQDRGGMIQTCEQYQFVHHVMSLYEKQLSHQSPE
Put plainly: PTPN5 inhibition measured colorimetrically – biochemical, colorimetric absorbance, orthogonal assay for STEP inhibitor project, dose response (AID 624207).

Setting [1] is: inactive by the depositor's call.

With `O=C1C(=O)N(CCCO)C(c2ccc(Br)cc2)C1C(=O)c1ccc(Br)cc1` (centres undefined) [(4E)-5-(4-bromophenyl)-4-[(4-bromophenyl)-oxidanyl-methylidene]-1-(3-oxidanylpropyl)pyrrolidine-2,3-dione], the IC50 worked out at 41.5 µM.
In turn, `CSc1ccc(CN=Nc2ccc(S(=O)(=O)Nc3ccccc3C(=O)O)cc2[N+](=O)[O-])cc1` [MLS002245633] gave an IC50 of 4.99 µM.
Same read-out and setting: for `Cc1ccccc1N1CCN(C(=S)c2ccc(-c3cccc([N+](=O)[O-])c3)o2)CC1` [[4-(2-methylphenyl)-1-piperazinyl]-[5-(3-nitrophenyl)-2-furanyl]methanethione] the value was > 80 µM; for `CCOc1ccc(CCNC(=O)CS(=O)(=O)Cc2nc(-c3ccc(OC)cc3)oc2C)cc1` [N-[2-(4-ethoxyphenyl)ethyl]-2-[[2-(4-methoxyphenyl)-5-methyl-1,3-oxazol-4-yl]methylsulfonyl]ethanamide], > 80 µM.
`O=C(O)CCC(/N=N/c1ccc(S(=O)(=O)N2CCCC2)cc1[N+](=O)[O-])c1cccs1` (centres undefined) [SMR000151450] displayed a half-inhibitory concentration (IC50) under setting [1] of 32.8 µM.
As to `O=C(Nc1cc([N+](=O)[O-])ccc1O)c1cccc(C(=O)Nc2cc([N+](=O)[O-])ccc2O)c1` [MLS001008494], the IC50 came to 7.05 µM. This counts as single-digit micromolar.
Under setting [1], `COc1cccc(-c2cc(C(=O)Nc3nc4ccccc4s3)c3ccccc3n2)c1` [N-(1,3-benzothiazol-2-yl)-2-(3-methoxyphenyl)-4-quinolinecarboxamide] showed an IC50 of 78.3 µM.
For `CCOC(=O)CC(NS(=O)(=O)c1ccc2ncc(C(=O)O)c(O)c2c1)c1ccc(OCC)c(OC)c1` (centres undefined) [SMR000621519], the IC50 was > 80 µM.
As to `CC1=C(C(=O)OC(C)C)C(c2ccc(Cl)cc2)n2c(s/c(=C\c3ccc(OCC(=O)O)cc3)c2=O)=N1` (centres undefined) [{4-[(5-(4-chlorophenyl)-6-(isopropoxycarbonyl)-7-methyl-3-oxo-5H-[1,3]thiazolo[3,2-a]pyrimidin-2(3H)-ylidene)methyl]phenoxy}acetic acid], the IC50 is 5.83 µM.
Same read-out and setting: in the case of `COc1ccccc1Nc1ccc([N+](=O)[O-])cc1N` [SMR000260154] it was > 80 µM.
`CC(C)(C)C(=O)Nc1ccc(C(=O)Nc2cccc(Oc3ccc(C(=O)O)c(C(=O)O)c3)c2)cc1` [MLS001181252] had an IC50 under setting [1] of 25.2 µM.
Take `O=C(COc1ccc([CH+][N-]NC(=O)c2ccncc2)cc1)Nc1ccc([N+](=O)[O-])cc1` [N-[(E)-[4-[2-[(4-nitrophenyl)amino]-2-oxidanylidene-ethoxy]phenyl]methylideneamino]pyridine-4-carboxamide]: the IC50 is > 80 µM.
On the same count and under the same terms, in the case of `Clc1ccc(Cl)c(-c2nc(-c3ccncc3)no2)c1` [4-[5-(2,5-dichlorophenyl)-1,2,4-oxadiazol-3-yl]pyridine] it was > 80 µM.
Still for that read-out and setting: for `CC(=O)N1CCC(N(CCN2CCOCC2)C(=S)Nc2ccc(C)cc2)CC1` the value was > 80 µM; for `O=C1Nc2ccc3sc4ccccc4c3c2C1=O` [3H-6-Thia-3-aza-cyclopenta[c]fluorene-1,2-dione], > 80 µM.
As for `COCCN(C(=S)Nc1c(C)cc(C)cc1C)C(C)c1cccnc1` (centres undefined) [MLS000584539], the 50% inhibitory concentration (IC50) is > 80 µM.
The compound `O=C(N/N=C/c1cccnc1)c1ccc(NC(=O)c2cccc(Cl)c2)cc1` [3-chloro-N-[4-[oxo-[(2E)-2-(3-pyridinylmethylidene)hydrazinyl]methyl]phenyl]benzamide] yielded an IC50 under setting [1] of 45.6 µM.
Turning to `O=Cc1cn(-c2ccccc2)nc1-c1cc2cc(O)ccc2oc1=O` [SMR000152596], the IC50 is > 80 µM.
On the same count and under the same terms, in the case of `NC(=NOC(=O)c1cccc2ccccc12)c1cccc([N+](=O)[O-])c1` [N'-(1-naphthoyloxy)-3-nitrobenzenecarboximidamide] it was > 80 µM; in that of `CC(/N=N/c1ccc(S(N)(=O)=O)cc1[N+](=O)[O-])c1cccs1` (centres undefined), > 80 µM; in that of `COc1cc(NC(=S)N2CCN(C)CC2)c(OC)cc1Cl`, > 80 µM.
In turn, `CCOc1ccc(C(=S)N2CCN(C)CC2)cc1` [(4-ethoxyphenyl)-(4-methyl-1-piperazinyl)methanethione] gave an IC50 under setting [1] of 44.3 µM.
With `S=C(c1cn(CCOc2ccccc2)c2ccccc12)N1CCCC1` [MLS-0109562.0001], the IC50 under setting [1] was found to be 41.3 µM.
On to `CC(C)OCCCN=C(S)Nc1ccc(S(N)(=O)=O)cc1` [1-(3-propan-2-yloxypropyl)-3-(4-sulfamoylphenyl)thiourea], for which the IC50 was > 80 µM.
As to `CCCCC(=O)Nc1ccc(C(=O)NNC(=O)c2ccc(C)c(Br)c2)cc1` [N-(4-{[2-(3-bromo-4-methylbenzoyl)hydrazino]carbonyl}phenyl)pentanamide], the half-maximal inhibitory concentration (IC50) under setting [1] is 53.8 µM.
`O=C(N/N=C/c1cccc([N+](=O)[O-])c1)c1ccc(Br)cc1` [4-bromo-N-[(E)-(3-nitrophenyl)methylideneamino]benzamide] displayed an IC50 under setting [1] of 21.5 µM.
With `O=C(O)Cc1cccc(O)c(=O)c1C(=O)O` [MLS002703575], the 50% inhibitory concentration (IC50) is > 80 µM.
In the case of `S=C(NCCCN1CCOCC1)Nc1ccc(-c2nc3ccccc3[nH]2)cc1`, the IC50 under setting [1] came to 79.6 µM.
Turning to `Cc1nn(C)cc1C=NNC(=S)Nc1ccccc1` [1-[(E)-(1,3-dimethylpyrazol-4-yl)methylideneamino]-3-phenyl-thiourea], under setting [1], the IC50 was 57.9 µM.
In the case of `CCc1ccc(NC(=O)Cc2cn(C)c3ccccc23)cc1`, the IC50 was > 80 µM.
Turning to `COc1ccc(CN=Nc2nc(O)c(CC(=O)O)s2)cc1OCc1ccc(Cl)cc1Cl` [[2-({3-[(2,4-dichlorobenzyl)oxy]-4-methoxybenzylidene}hydrazono)-4-oxo-1,3-thiazolidin-5-yl]acetic acid], the IC50 amounted to 13.6 µM.
The same measure, in the same setting: in the case of `Cc1ccc(NC(=O)CN2C(=O)S/C(=C\c3ccc(OCC(=O)O)c(Br)c3)C2=O)cc1` [SMR000477386] it was > 80 µM.
Regarding `COc1ccc(NC(=S)N(CCC(C)C)C2CCN(C(C)C)CC2)cc1Cl` [3-(3-chloranyl-4-methoxy-phenyl)-1-(3-methylbutyl)-1-(1-propan-2-ylpiperidin-4-yl)thiourea], the IC50 is 10.6 µM.
Take `O=C(CCc1ccccc1)NNC(=O)c1ccc(NC(=O)c2ccccc2)cc1`: under setting [1], half-maximal inhibition (IC50) was put at 37.9 µM. This counts as double-digit micromolar.
`COc1cccc(Nc2nn3c(=O)c4ccccc4nc3s2)c1` yielded an IC50 under setting [1] of 58.2 µM. This IC50 is about 1.5-fold higher than that of the compound before.
For `Cc1ccc(Cn2cc(C=O)c(-c3ccc(C)cc3)n2)cc1` [3-(4-methylphenyl)-1-[(4-methylphenyl)methyl]-4-pyrazolecarboxaldehyde], the half-inhibitory concentration (IC50) is > 80 µM.
Compound `CC(=NNC(=O)c1ccccc1O)c1ccc(NC(=O)Cc2ccccc2)cc1` [MLS001224813] displayed an IC50 under setting [1] of 29.4 µM.
Take `COc1ccc2cc3c(N)nn(C(=O)c4cccc(F)c4)c3nc2c1` [MLS000731294]: the IC50 was > 80 µM.
`O=C(N/N=C/c1cccc(Br)c1)c1ccc(N2CCCC2=O)cc1` [N-[(E)-(3-bromophenyl)methylideneamino]-4-(2-oxidanylidenepyrrolidin-1-yl)benzamide]: under setting [1], the IC50 stood at 22.9 µM.
As for `CN1CCN(C(=S)C(=O)Nc2ccc(Br)cc2)CC1` [MLS000665240], the half-inhibitory concentration (IC50) amounted to 12.6 µM. In other words, the double-digit micromolar range.
Take `O=C(N/N=C/c1ccc(Br)s1)c1cccc([N+](=O)[O-])c1` [N-[(E)-(5-bromanylthiophen-2-yl)methylideneamino]-3-nitro-benzamide]: the IC50 stood at 14.9 µM.
Under setting [1], `CN1CCN(C(=S)c2ccc(Br)cc2)CC1` [1-[(4-bromophenyl)carbonothioyl]-4-methylpiperazine] gave an IC50 of 42 µM.
In the case of `O=S(=O)(Nc1ccccc1)c1cccc2nsnc12` [N-phenyl-2,1,3-benzothiadiazole-4-sulfonamide], the half-maximal inhibitory concentration (IC50) is > 80 µM.
The same measure, in the same setting: in the case of `CCOc1ccc(C(=O)Nc2cc(-c3nc4ccccc4[nH]3)ccc2Cl)cc1[N+](=O)[O-]` [MLS000574482] it was > 80 µM; in that of `COc1cccc(N2[C@@H](CC(=O)O)c3ccc(/C=C/C(=O)O)cc3S2(=O)=O)c1` [(E)-3-[(3S)-3-(carboxymethyl)-2-(3-methoxyphenyl)-1,1-dioxo-3H-1,2-benzothiazol-6-yl]prop-2-enoic acid], > 80 µM.
In the case of `OCCN1CCN(C(=S)c2ccc(Cl)c(Cl)c2)CC1` [(3,4-dichlorophenyl)-[4-(2-hydroxyethyl)-1-piperazinyl]methanethione], under setting [1], the IC50 stood at 22 µM.
For `Cc1ccc(-c2nc(NC(=O)CSc3cc(C)c4ccccc4n3)ns2)cc1` [2-[(4-methyl-2-quinolyl)thio]-N-[5-(p-tolyl)-1,2,4-thiadiazol-3-yl]acetamide], the IC50 is > 80 µM.
Consider `CN(C)c1ccc(C(=S)N2CCN(Cc3ccccc3)CC2)cc1` [MLS000679877], for which the half-maximal inhibitory concentration (IC50) under setting [1] turned out to be 56.9 µM. This lies in the double-digit micromolar range.
In the case of `N#C/C(=C\c1ccc(OC(=O)c2ccc(Cl)s2)cc1)c1nc2ccccc2[nH]1` [5-chloro-2-thiophenecarboxylic acid [4-[(E)-2-(1H-benzimidazol-2-yl)-2-cyanoethenyl]phenyl] ester], the IC50 is > 80 µM.
Turning to `S=C1N=C2C(=C3SCCS3)CCCC2C(c2ccccc2)N1` (centres undefined) [MLS000516376], the midpoint of inhibition, the IC50, lay at 72.8 µM. This counts as double-digit micromolar.
Take `CCN1CCN(C(=S)c2ccc(Cl)c(Cl)c2)CC1` [SMR000143195]: under setting [1], the half-inhibitory concentration (IC50) turned out to be 39.3 µM.
For `NS(=O)(=O)c1ccccc1` [sodium;phenylsulfonylazanide], the IC50 worked out at 73 µM.
`NS(=O)(=O)c1ccc(NC(=S)N2CCC(Cc3ccccc3)CC2)cc1` [MLS001196239]: the IC50 under setting [1] is 76 µM. In other words, the double-digit micromolar range.
Compound `NC(=O)c1cc2ccccc2o/c1=N\NC(=O)c1ccccc1O` [(2Z)-2-[[(2-hydroxyphenyl)-oxomethyl]hydrazinylidene]-1-benzopyran-3-carboxamide] had an IC50 of 13.7 µM.
